Reference: publication PMC11513854, “De novo GTP synthesis is a metabolic vulnerability for the interception of brain metastases” (Cell Reports Medicine, 2024)

How the values were obtained:
CRUK0748-BM = assay: Dose-response assay on CRUK0748-BM line; type: cell-based, human
Source text: To obtain a clinically relevant correlate to the data aforementioned, we acquired two patient-derived lung adenocarcinoma samples: one that was derived from a patient who developed BM following their primary lung tumor diagnosis (CRUK0748), and one that was derived from a patient who, to-date, has not developed BM (CRUK0733). BM-initiating capacity was confirmed in our PDX models (Figure S1C). We harvested the tagged CRUK0748 cells from the brains of mice and cultured them in stem cell-enrichment media conditions to derive a CRUK0748-BM line.
Dose-response assays were conducted using the same protocol apart from drugs being plated using 2-fold serial dilutions (20 μM - 39 nM) as previously described.[66] The half maximal inhibitory concentration (IC50) is determined by plotting percent cell viability by the logarithmic concentration of drug. IC80 concentrations will be used for subsequent functional assays (cell proliferation, sphere formation), as determined by the following formula: ICF=100−F/F^1/H×IC50 where F = fraction of maximal response and H = hill slope.

patient-derived BMICs = assay: Clonogenic sphere formation assay; type: cell-based, human; settings: limiting dilution and clonogenic sphere formation assays, IC80
Method: To assess tumor sphere forming capacity under clonogenic conditions, neurospheres were dissociated into single cells and plated at a low density of 200 cells/well in low-binding tissue culture-treated 96-well plates in serum-free media as previously described.[14]^,[66]^,[67]^,[68]^,[69] Cells were incubated with drug (IC80) or DMSO control, in triplicate, and incubated at 37°C with a humidified atmosphere of 5% CO2. The number of spheres per well were manually counted seven days later. The results were illustrated and analyzed for significance using GraphPad Prism 8 software.

[1] = system: primary lung CRUK0748 cell line; assay: Orthotopic injection of CRUK0748, daily oral gavage treatment; type: in vivo, mice; settings: 100 mg/kg daily oral gavage, vs placebo
Source text: Next, we injected mice orthotopically with the primary lung CRUK0748 cell line and treated them daily as described earlier (see Figure S3A).
All experimental procedures involving animal work has been reviewed and approved by McMaster University Animal Research Ethics Board. Non-obese diabetic-severe combined immunodeficient IL2r γ ^null (NSG) mice are used for all experiments. Equal numbers of male and female mice were used for all experiments. Healthy mice were 6–8 weeks at time of use. Mice are anesthetized by gas anesthesia using isoflurane (4% induction, 2.5% maintenance) before procedure. Cells were engineered to express firefly luciferase and were injected intracardially, orthotopically, or intracranially as previously described.[13]^,[14]^,[63]^,[64]^,[65] […] Mice are monitored weekly for signs of illness until endpoint.
Fig S3. MPA m ust cross the blood brain barrier to eff ectively slow the progression of BM over tim e, related to Figures 3 and 4. a, Mice were either orthotopically (intratho racically) or intracardiac injected with lung BMICs, […]
seven days post-injection by IVIS, (c), no significant reduction in tumor burden following t reatment completion […]
to placebo, but (f) had the same number of human cells detected in their brains following humane endpoint by flow cytometry. n.s. = not significant.
(1 picture or pasted object on this page, not shown here)

[2] = carboxylic acid functionality; no measurement described; cited from earlier work

COc1c(C)c2c(c(O)c1C/C=C(\C)CCC(=O)O)C(=O)OC2 [MPA, Mycophenolic acid]
BMIC proliferation, dose-response (CRUK0748-BM): inhibits BMIC proliferation | frequency of stemness in BMIC lines (patient-derived BMICs): significantly reduces the frequency of stemness | number of human cells detected in mouse brains ([1]; humane endpoint, flow cytometry): no significant difference | survival [1]: survived significantly longer | pKa [2]: ~5
